Test results from ChEMBL document CHEMBL4190379 (Bioorg Med Chem Lett, 2018).

What was measured:
Mus musculus [1] = assay: Toxicity in human OPM2 cells xenografted SCID-beige mouse assessed as body weight loss at 3.75 mg/kg, po qd administered for 28 days starting from 18 days post tumor inoculation; type: organism-based; settings: in vivo
OPM-2 [2] = assay: Antitumor activity against human OPM2 cells xenografted in SCID-beige mouse assessed as inhibition of tumor growth administered once daily orally for 28 days starting from 18 days post tumor inoculation; type: functional, cell-based
[3] = target: Protein polybromo-1 (Homo sapiens) (UniProt Q86U86); assay: Binding affinity to human PBRM1 bromodomain 2 expressed in bacterial system assessed as remaining binding level at 1 uM by BROMOscan assay relative to control
Chain of Protein polybromo-1 (Homo sapiens) (Q86U86 whole entry): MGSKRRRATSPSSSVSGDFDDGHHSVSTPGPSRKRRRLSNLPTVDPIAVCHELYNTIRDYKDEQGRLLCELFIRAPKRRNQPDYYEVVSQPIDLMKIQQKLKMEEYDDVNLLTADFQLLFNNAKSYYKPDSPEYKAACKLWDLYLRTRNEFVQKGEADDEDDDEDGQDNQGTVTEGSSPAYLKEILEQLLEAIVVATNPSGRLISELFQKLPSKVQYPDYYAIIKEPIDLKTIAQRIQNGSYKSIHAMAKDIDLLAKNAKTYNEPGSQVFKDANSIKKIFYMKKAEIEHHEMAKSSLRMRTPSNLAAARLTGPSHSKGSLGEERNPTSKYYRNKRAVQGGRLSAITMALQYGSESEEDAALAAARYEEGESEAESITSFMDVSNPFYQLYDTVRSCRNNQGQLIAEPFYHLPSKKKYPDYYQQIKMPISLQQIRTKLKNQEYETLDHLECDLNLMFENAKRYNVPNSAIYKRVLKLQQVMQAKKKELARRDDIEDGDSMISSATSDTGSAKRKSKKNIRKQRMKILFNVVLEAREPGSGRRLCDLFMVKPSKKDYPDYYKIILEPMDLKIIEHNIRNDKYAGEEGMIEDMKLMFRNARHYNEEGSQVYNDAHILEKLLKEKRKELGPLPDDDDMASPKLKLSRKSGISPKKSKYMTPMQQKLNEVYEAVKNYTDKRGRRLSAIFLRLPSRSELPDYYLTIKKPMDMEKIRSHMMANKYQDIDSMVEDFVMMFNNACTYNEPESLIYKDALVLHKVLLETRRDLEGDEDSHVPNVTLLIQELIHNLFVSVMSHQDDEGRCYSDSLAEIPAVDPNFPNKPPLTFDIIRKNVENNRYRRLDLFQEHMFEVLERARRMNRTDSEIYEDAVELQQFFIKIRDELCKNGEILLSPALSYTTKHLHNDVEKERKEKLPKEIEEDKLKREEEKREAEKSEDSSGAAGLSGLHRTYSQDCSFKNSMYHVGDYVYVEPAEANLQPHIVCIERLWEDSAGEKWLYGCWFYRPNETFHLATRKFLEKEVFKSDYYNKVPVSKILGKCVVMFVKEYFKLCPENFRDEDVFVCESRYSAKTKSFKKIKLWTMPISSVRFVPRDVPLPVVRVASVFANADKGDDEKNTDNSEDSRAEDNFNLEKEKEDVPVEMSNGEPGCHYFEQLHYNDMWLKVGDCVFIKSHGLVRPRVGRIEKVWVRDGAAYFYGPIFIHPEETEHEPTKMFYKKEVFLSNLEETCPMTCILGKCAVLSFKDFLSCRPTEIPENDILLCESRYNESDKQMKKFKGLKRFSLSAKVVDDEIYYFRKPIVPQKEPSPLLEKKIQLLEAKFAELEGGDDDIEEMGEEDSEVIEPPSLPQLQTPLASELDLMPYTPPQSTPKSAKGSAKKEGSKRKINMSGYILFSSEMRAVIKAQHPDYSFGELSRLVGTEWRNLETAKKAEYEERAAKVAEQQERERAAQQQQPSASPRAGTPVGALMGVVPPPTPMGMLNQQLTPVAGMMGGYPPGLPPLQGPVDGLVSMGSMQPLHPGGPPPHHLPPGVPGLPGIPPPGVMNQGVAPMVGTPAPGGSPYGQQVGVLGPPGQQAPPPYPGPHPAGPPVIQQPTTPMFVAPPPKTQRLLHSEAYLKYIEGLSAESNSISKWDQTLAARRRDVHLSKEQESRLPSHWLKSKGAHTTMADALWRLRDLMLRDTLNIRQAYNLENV

OPM-2 [4] = assay: Antitumor activity against human OPM2 cells xenografted in SCID-beige mouse assessed as inhibition of tumor growth at 3.75 mg/kg, po qd administered for 28 days starting from 18 days post tumor inoculation; type: functional; settings: OPM-2, po, read-out: TGI
Mus musculus [5] = assay: Toxicity in human OPM2 cells xenografted SCID-beige mouse assessed as body weight loss at 7.5 mg/kg, po qd administered for 28 days starting from 18 days post tumor inoculation; type: organism-based; settings: in vivo
OPM-2 [6] = assay: Antitumor activity against human OPM2 cells xenografted in SCID-beige mouse assessed as inhibition of tumor growth at 7.5 mg/kg, po qd administered for 28 days starting from 18 days post tumor inoculation; type: functional; settings: OPM-2, po, read-out: TGI
[7] = target: Histone acetyltransferase KAT2A (Homo sapiens) (UniProt Q92830); assay: Binding affinity to human GCN5L2 expressed in bacterial system assessed as remaining binding level at 1 uM by BROMOscan assay relative to control
Chain of Histone acetyltransferase KAT2A (Homo sapiens) (Q92830 2-837 limits assumed): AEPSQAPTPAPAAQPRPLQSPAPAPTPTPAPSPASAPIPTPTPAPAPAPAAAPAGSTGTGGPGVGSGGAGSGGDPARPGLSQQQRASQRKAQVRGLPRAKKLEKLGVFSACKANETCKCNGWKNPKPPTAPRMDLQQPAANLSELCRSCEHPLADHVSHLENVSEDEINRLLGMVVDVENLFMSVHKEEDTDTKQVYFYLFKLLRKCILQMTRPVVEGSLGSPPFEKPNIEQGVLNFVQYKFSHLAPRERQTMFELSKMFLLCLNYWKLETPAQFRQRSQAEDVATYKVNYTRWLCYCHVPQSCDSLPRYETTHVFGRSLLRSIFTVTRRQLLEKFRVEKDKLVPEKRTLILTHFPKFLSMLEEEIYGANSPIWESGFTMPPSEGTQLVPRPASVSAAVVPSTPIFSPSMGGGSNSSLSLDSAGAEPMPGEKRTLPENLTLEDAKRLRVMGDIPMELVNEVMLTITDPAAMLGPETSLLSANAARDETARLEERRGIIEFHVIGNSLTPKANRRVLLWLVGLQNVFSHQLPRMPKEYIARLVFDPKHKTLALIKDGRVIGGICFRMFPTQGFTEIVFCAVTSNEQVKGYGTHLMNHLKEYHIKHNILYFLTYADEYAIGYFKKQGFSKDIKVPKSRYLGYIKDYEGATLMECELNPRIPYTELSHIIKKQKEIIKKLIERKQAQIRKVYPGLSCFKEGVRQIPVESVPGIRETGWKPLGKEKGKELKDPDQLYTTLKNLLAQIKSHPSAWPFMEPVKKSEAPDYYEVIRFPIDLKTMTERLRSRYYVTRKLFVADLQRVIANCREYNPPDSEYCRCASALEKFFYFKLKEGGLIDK

[8] = Oral bioavailability in mouse at 10 mg/kg; type: ADME, organism-based; settings: in vivo
[9] = target: Bromodomain and WD repeat-containing protein 1 (Homo sapiens) (UniProt Q9NSI6); assay: Binding affinity to human WDR9 bromodomain 2 expressed in bacterial system assessed as remaining binding level at 1 uM by BROMOscan assay relative to control
Chain of Bromodomain and WD repeat-containing protein 1 (Homo sapiens) (Q9NSI6 whole entry): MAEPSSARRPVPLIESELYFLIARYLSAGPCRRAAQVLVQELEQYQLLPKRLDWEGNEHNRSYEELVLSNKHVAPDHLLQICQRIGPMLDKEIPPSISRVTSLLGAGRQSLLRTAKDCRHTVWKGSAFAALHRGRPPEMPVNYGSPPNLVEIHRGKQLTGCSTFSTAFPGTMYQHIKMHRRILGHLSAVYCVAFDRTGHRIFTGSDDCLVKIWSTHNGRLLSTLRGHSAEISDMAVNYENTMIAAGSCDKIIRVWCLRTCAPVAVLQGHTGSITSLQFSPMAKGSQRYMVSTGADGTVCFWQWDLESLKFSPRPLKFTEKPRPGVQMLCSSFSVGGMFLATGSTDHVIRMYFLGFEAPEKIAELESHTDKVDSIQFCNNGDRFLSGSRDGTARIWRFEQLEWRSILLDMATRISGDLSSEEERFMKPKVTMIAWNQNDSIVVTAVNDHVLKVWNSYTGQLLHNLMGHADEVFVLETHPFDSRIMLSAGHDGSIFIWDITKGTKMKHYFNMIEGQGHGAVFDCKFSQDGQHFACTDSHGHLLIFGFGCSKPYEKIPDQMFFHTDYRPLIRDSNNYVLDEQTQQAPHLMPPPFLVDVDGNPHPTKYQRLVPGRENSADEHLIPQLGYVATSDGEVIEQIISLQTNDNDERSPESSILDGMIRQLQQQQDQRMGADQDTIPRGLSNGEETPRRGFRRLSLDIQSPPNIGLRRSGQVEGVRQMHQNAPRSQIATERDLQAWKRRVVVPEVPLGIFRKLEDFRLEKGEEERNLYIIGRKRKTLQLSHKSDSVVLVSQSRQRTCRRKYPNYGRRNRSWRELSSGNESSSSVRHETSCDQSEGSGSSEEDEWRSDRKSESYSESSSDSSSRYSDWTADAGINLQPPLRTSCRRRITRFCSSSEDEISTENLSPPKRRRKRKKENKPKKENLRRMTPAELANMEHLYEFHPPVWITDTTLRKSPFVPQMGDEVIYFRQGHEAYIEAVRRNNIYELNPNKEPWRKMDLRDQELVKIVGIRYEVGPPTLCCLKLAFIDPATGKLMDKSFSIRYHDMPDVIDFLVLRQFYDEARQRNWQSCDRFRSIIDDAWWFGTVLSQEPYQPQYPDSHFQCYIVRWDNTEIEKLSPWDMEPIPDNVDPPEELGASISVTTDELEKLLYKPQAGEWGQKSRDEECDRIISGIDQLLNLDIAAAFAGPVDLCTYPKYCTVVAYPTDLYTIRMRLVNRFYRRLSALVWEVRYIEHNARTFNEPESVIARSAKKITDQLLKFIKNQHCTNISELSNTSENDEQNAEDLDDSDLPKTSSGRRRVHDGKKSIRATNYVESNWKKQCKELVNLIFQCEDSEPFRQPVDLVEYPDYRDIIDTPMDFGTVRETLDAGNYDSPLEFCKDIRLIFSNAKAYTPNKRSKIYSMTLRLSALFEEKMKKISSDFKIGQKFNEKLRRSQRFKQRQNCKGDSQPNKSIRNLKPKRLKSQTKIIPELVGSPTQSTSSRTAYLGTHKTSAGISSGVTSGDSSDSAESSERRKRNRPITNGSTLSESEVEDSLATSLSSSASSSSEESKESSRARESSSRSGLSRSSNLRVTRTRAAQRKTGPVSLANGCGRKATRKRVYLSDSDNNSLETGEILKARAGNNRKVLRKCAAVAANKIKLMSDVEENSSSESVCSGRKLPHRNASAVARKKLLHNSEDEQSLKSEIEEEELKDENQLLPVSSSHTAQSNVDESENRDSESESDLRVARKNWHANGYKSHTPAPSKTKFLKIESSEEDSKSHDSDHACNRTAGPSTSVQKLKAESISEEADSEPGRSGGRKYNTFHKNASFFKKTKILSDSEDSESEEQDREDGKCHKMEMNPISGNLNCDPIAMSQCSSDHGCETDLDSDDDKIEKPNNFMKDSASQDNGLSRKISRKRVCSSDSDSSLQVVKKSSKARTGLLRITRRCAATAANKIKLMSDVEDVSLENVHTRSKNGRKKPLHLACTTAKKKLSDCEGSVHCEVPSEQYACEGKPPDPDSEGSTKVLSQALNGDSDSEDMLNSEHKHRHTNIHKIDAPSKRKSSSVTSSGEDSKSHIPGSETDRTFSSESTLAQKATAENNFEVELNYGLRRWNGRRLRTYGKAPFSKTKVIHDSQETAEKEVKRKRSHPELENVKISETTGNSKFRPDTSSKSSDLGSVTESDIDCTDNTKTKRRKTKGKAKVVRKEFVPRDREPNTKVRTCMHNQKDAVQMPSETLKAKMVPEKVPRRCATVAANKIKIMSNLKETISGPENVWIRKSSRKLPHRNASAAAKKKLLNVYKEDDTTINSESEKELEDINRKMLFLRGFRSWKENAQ

[10] = AUC in mouse at 10 mg/kg, po; type: ADME, organism-based; settings: in vivo
OPM-2 [11] = assay: Antitumor activity against human OPM2 cells xenografted in SCID-beige mouse assessed as inhibition of tumor growth at 0.31 mg/kg, po qd administered for 28 days starting from 18 days post tumor inoculation; type: functional; settings: OPM-2, po, read-out: TGI
Mus musculus [12] = assay: Dose normalized AUC in mouse at 1 mg/kg, po; type: ADME, organism-based; settings: in vivo
Mus musculus [13] = assay: Toxicity in human OPM2 cells xenografted SCID-beige mouse assessed as morbidity at 0.31 mg/kg, po qd administered for 28 days starting from 18 days post tumor inoculation; type: organism-based; settings: in vivo
OPM-2 [14] = assay: Antitumor activity against human OPM2 cells xenografted in SCID-beige mouse assessed as inhibition of tumor growth at 0.62 mg/kg, po qd administered for 28 days starting from 18 days post tumor inoculation; type: functional; settings: OPM-2, po, read-out: TGI
Mus musculus [15] = assay: Toxicity in human OPM2 cells xenografted SCID-beige mouse assessed as body weight loss at 0.62 mg/kg, po qd administered for 28 days starting from 18 days post tumor inoculation; type: organism-based; settings: in vivo
Mus musculus [16] = assay: Toxicity in human OPM2 cells xenografted SCID-beige mouse assessed as body weight loss at 0.31 mg/kg, po qd administered for 28 days starting from 18 days post tumor inoculation; type: organism-based; settings: in vivo

Compound	Activity (Mus musculus [1]) [%]	TGI (OPM-2 [2])	Activity [3] [%]	inhibition in vivo at 3.75 mg/kg (OPM-2 [4]) [%]	Activity (Mus musculus [5]) [%]	inhibition in vivo at 7.5 mg/kg (OPM-2 [6]) [%]	Activity [7] [%]	bioavailability [8] [%]	Activity [9] [%]	AUC [10] [µM·h]	inhibition in vivo at 0.31 mg/kg (OPM-2 [11]) [%]	AUC/dose (Mus musculus [12]) [µM·h]	Activity (Mus musculus [13])	inhibition in vivo at 0.62 mg/kg (OPM-2 [14]) [%]	Activity (Mus musculus [15]) [%]	Activity (Mus musculus [16]) [%]
Cn1cc2c3c(c[nH]c(=O)c31)-c1cc(CS(C)(=O)=O)ccc1N(c1ccc(F)cc1)C2	10	Dose-dependent effect	92	68	9	84	87	34	100	2.8						
Cn1cc2c3c(c[nH]c3c1=O)CN(c1ccc(F)cc1F)c1ccc(CS(C)(=O)=O)cc1-2			79				97	93	95	12						
Cn1cc2c3c(c[nH]c3c1=O)CN(c1ccccn1)c1ccc(CS(C)(=O)=O)cc1-2		Dose-dependent effect	81				84	32	89		60	3.5	Non-Toxic	94	5	0
